According to patent publication US10975048B2, “Composition of 1,3,4-selenadiazole containing compounds with pharmacological activity” (HANGZHOU JENNIFER BIOTECH CO., LTD, priority 2015, dated 2021):
Like-named read-outs stand apart in the source and are kept apart here.

What was measured:
GDH = GDH (Homo sapiens, UniProt P00367); assay: GDH inhibition IC50; format: biochemical
KGA = target: T1, KGA (Homo sapiens, UniProt O94925); assay: KGA inhibition IC50; format: biochemical
T1 sequence (O94925 55-669): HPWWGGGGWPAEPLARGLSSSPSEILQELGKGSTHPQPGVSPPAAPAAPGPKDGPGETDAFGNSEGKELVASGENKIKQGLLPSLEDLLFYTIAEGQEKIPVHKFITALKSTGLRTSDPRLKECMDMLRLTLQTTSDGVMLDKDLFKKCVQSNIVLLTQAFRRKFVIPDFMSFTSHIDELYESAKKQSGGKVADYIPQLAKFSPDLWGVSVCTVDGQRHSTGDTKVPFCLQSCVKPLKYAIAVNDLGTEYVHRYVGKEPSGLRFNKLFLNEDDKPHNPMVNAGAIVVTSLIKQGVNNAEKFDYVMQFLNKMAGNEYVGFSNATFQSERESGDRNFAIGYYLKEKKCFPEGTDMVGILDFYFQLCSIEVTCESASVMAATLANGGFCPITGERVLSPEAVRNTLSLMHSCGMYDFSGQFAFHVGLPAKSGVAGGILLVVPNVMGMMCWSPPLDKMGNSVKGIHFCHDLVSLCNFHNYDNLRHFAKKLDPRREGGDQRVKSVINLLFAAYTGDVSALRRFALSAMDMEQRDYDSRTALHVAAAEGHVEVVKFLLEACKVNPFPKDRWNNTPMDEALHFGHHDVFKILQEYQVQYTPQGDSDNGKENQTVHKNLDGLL
Excerpt: (§1) The molecular structure of specific compounds is described as follows: […]

A 549 lung cancer cells = assay: Inhibition of A549 lung cancer cells; format: cell-based; conditions: for A549 Max-INH: maximal inhibition; for IC50: Homo sapiens
Excerpt: as §1

[1] = A549 cells, read-out: A549 IC50

Sequence of GDH (P00367 54-558): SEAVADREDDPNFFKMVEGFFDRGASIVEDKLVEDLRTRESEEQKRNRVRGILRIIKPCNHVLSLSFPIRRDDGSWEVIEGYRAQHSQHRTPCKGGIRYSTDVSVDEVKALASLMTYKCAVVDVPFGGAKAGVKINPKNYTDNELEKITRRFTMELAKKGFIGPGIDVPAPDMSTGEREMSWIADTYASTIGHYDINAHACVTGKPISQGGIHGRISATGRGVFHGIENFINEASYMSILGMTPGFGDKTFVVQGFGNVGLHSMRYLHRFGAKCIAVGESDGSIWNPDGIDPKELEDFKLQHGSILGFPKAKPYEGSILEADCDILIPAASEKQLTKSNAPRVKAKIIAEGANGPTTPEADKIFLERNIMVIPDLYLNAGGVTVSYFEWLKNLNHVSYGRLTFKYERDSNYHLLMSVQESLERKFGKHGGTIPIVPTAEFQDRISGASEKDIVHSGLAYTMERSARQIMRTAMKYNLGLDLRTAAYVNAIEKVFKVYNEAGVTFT

Structure (SMILES) | melting point | IC50 (GDH) | IC50 (KGA) | A549 Max-INH (A 549 lung cancer cells; A549 cells) | IC50 (A 549 lung cancer cells; [1]) | IC50 (KGA; read-out: KGA IC50) | IC50 (A 549 lung cancer cells; A549, read-out: A549 IC50)
c1ccc(Nc2nnc(Cc3nnc(Nc4ccccc4)[se]3)[se]2)cc1 | 130 to 132 °C |  |  |  |  |  | 
c1ccc(Nc2nnc(CCc3nnc(Nc4ccccc4)[se]3)[se]2)cc1 | 160 to 161 °C |  |  |  |  |  | 
c1ccc(Nc2nnc(CCCc3nnc(Nc4ccccc4)[se]3)[se]2)cc1 | 198 to 201 °C |  |  |  |  |  | 
c1ccc(Nc2nnc(CCCCCc3nnc(Nc4ccccc4)[se]3)[se]2)cc1 | 165 to 171 °C |  |  |  |  |  | 
ClCCc1nnc(Nc2ccccc2)[se]1 | 109 to 110 °C |  |  |  |  |  | 
ClCCc1nnc(NCc2ccccc2)[se]1 | 109 to 110 °C |  |  |  |  |  | 
ClCCc1nnc(NCCc2ccccc2)[se]1 | 109 to 110 °C |  |  |  |  |  | 
N=C(N)NCc1nnc(Nc2ccccc2)[se]1 | 109 to 110 °C |  |  |  |  |  | 
c1ccc(Nc2nnc(CCSCCc3nnc(Nc4ccccc4)[se]3)[se]2)cc1 | 172 to 174 °C |  |  |  |  |  | 
Cn1cc(CC(=O)Nc2nnc(CCSCCc3nnc(N)[se]3)[se]2)c2ccccc21 |  | > 10 µM | 0.11 µM | 84% | 2.05 µM |  | 
Cn1cc(CC(=O)Nc2nnc(CCSCCc3nnc(N)s3)s2)c2ccccc21 |  | > 10 µM |  | 55% | 9.7 µM | 0.14 µM | 
Cn1cc(CC(=O)Nc2nnc(CCSCCc3nnc(NC(=O)Cc4cn(C)c5ccccc45)[se]3)[se]2)c2ccccc21 |  | > 10 µM |  | 90% | 0.16 µM | 0.027 µM | 
Cn1cc(CC(=O)Nc2nnc(CCSCCc3nnc(NC(=O)Cc4cn(C)c5ccccc45)s3)s2)c2ccccc21 |  | > 10 µM |  | 80% | 0.82 µM | 0.28 µM | 
Cn1ccc(CC(=O)Nc2nnc(CCSCCc3nnc(N)[se]3)[se]2)c1 |  | > 10 µM | 0.21 µM | 40% | > 10 µM |  | 
Cn1ccc(CC(=O)Nc2nnc(CCSCCc3nnc(N)s3)s2)c1 |  | > 10 µM |  | 0% | > 10 µM | 0.57 µM | 
Cn1ccc(CC(=O)Nc2nnc(CCSCCc3nnc(NC(=O)Cc4ccn(C)c4)[se]3)[se]2)c1 |  | > 10 µM |  | 91% | 3.1 µM | 0.06 µM | 
Cn1ccc(CC(=O)Nc2nnc(CCSCCc3nnc(NC(=O)Cc4ccn(C)c4)s3)s2)c1 |  | > 10 µM |  | 80% | 6.5 µM | 0.13 µM | 
Nc1nnc(CCSCCc2nnc(NC(=O)Cc3ccccc3)[se]2)[se]1 |  | > 10 µM | 1.4 µM | 62% | 6.3 µM |  | 
O=C(Cc1ccccc1)Nc1nnc(CCSCCc2nnc(NC(=O)Cc3ccccc3)[se]2)[se]1 |  | > 10 µM |  | 66% | 0.3 µM | 0.06 µM | 
O=C(Cc1ccccc1)Nc1nnc(CCSCCc2nnc(NC(=O)Cc3ccccc3)s2)s1 |  |  |  | 75% | 0.87 µM |  | 
Nc1nnc(CCSCCc2nnc(NC(=O)C34CC5CC(CC(C5)C3)C4)[se]2)[se]1 |  | > 10 µM | 4 µM | 17% | > 10 µM |  | 
O=C(Nc1nnc(CCSCCc2nnc(NC(=O)C34CC5CC(CC(C5)C3)C4)[se]2)[se]1)C12CC3CC(CC(C3)C1)C2 |  | > 10 µM | 1.9 µM | 17% | > 10 µM |  | 
O=C(Cc1cccc(OC(F)(F)F)c1)Nc1ccc(CCCCc2nnc(NC(=O)Cc3ccccn3)[se]2)nn1 |  | > 10 µM |  | 77% | 0.017 µM | 0.001 µM | 
O=C(Cc1cccc(OC(F)(F)F)c1)Nc1ccc(CCCCc2nnc(NC(=O)Cc3ccccn3)s2)nn1 |  | > 10 µM |  | 70% |  |  | 0.04 µM
Cn1cc(CC(=O)Nc2nnc(CCCCc3ccc(NC(=O)Cc4cccc(OC(F)(F)F)c4)nn3)[se]2)c2ccccc21 |  | > 10 µM |  | 90% | 0.017 µM | 0.001 µM | 
COc1ccc2c(c1)c(CC(=O)Nc1nnc(CCCCc3ccc(NC(=O)Cc4cccc(OC(F)(F)F)c4)nn3)[se]1)cn2C |  | > 10 µM |  | 90% | 0.01 µM | 0.005 µM | 
